Experimental data from US20210221812A1, “MATRINE a-KETOAMINE COMPOUNDS, PREPARATION METHOD THEREFOR AND USE THEREOF” (SHANGHAI XINGYE PHARMACEUTICAL TECHNOLOGY CO., LTD, priority 2018, published 2021).
pIC50: −log10 of the molar value. Where two headings read alike, the source gives them in different places. Each block holds one compound with its values, some of them ahead of it.

Legend:
TNF-α = TNF-α activity inhibiting assay (LPS-stimulated peripheral blood, ELISA); assay type: cell-based, human; details: compound 20 μM, LPS 10 ng/mL, 6 hours, diluted peripheral blood of healthy volunteers; for inhibition at 20 µM: Homo sapiens, read-out: TNF-α inhibition rate (%)
Procedure: Methods: Peripheral blood from healthy volunteers was collected with EDTA anticoagulant tubes. After being diluted 5-fold with 1640 medium (Gibco, USA), the blood was added to 96-well cell culture plates (Costar, USA) and then treated with 10 μL solution of the compound of general formula (I) of the present invention in DMSO (Sigma, USA), the final concentration of the compound was 20 μM with the final concentration of DMSO was 0.2%. After incubation for 60 minutes in an incubator at 37° C. under 5% CO2, 10 μL LPS (Sigma, USA) was added to the reaction system, and the final concentration was 10 ng/mL. After further culturing for 6 hours in the incubator at 37° C. under 5% CO2, the supernatant was collected. The content of TNF-α was determined by ELISA (BD Biosciences, USA). Absorbance was detected at OD450 nm with a microplate reader, with OD 650 nm as reference. The control, a solution containing 0.2% DMSO medium, was as 0% inhibition. Raw data and standard curves were recorded. The four-parameter drug inhibition curve was plotted by XL-fit software and the inhibition rate of each compound was calculated.

Lovo cells = test: MTT tumor cell growth inhibition, Lovo; assay type: cell-based; details: 48 h, read-out: Tumors growth-inhibitory activity (IC50) Lovo
Procedure: (§1) Using MTT method to determine the growth inhibition activity of the matrine compounds on Lovo, MGC-803, Mia-paca2, HpeG-2, A549, k562, and Panc-1 cells in vitro. Logarithmic growth phase of Lovo, MGC-803, Mia-paca2, HpeG-2, A549, k562, Panc-1 cells were inoculated into 96-well plates (purchased from Institute of Biochemical Cells, Chinese Academy of Sciences, and cultured according to conventional tumor cell culture methods) at a density of 4×10^4/mL and 180 μL/well; after the cells adhered to the wall, 20 μL of drug solution was added to each well and matined the final drug concentrations were 0.1 μM, 1 μM, 10 μM, 50 μM, 100 μM respectively. After 48 h, 5 mg/mL MTT solution was added (20 μL/well) and maintained in a CO2 incubator for 3-4 h. After that, discarding the supernatant carefully, and DMSO was added (200 μL/well) when the residual liquid was air-dried, and shook for 0.5-1 h until the residual crystals was dissolved. The absorbance OD was measured at 492 nm by a microplate reader. GraphPad Prism 5 software was used to calculate the IC50 value.

A549 cells = test: MTT tumor cell growth inhibition, A549; assay type: cell-based; details: 48 h, read-out: Tumors growth-inhibitory activity (IC50) A549
Procedure: as §1

k562 cells = test: MTT tumor cell growth inhibition, k562; assay type: cell-based; details: 48 h, read-out: Tumors growth-inhibitory activity (IC50) k562
Procedure: as §1

Mia-paca2 cells = test: MTT tumor cell growth inhibition, Mia-paca2; assay type: cell-based; details: read-out: Tumors growth-inhibitory activity (IC50) Mia-paca2
Procedure: as §1

Panc-1 cells = test: MTT tumor cell growth inhibition, Panc-1; assay type: cell-based; details: 48 h, read-out: Tumors growth-inhibitory activity (IC50) Panc-1
Procedure: as §1

MGC-803 cells = test: MTT tumor cell growth inhibition, MGC-803; assay type: cell-based; details: 48 h, read-out: Tumors growth-inhibitory activity (IC50) MGC-803
Procedure: as §1

HpeG-2 cells = test: MTT tumor cell growth inhibition, HpeG-2; assay type: cell-based; details: 48 h, read-out: Tumors growth-inhibitory activity (IC50) HpeG-2
Procedure: as §1

SMILES: O=C1c2ccccc2C(=O)N1C1CC[C@@H]2[C@H]3CCCN4CCC[C@H](CN2C1=O)[C@@H]34 (some centres unmarked) [GJD 28]
inhibition at 20 µM (TNF-α): > 50%

SMILES: COc1cc2c(cc1OC)C(=O)N(C1CC[C@@H]3[C@H]4CCCN5CCC[C@@H](CN3C1=O)[C@@H]45)C2=O (some centres unmarked) [GJD 19]
inhibition at 20 µM (TNF-α): < 50%

SMILES: Cc1cccc2c1C(=O)N(C1CC[C@@H]3[C@H]4CCCN5CCC[C@H](CN3C1=O)[C@@H]45)C2=O (some centres unmarked) [GJD 29]
inhibition at 20 µM (TNF-α): > 50%

pIC50 (Lovo cells; Homo sapiens): 4.00 to 4.30 | pIC50 (A549 cells; Homo sapiens): < 4.00 | pIC50 (k562 cells; Homo sapiens): 4.00 to 4.30 | pIC50 (Mia-paca2 cells; Homo sapiens, MIA PaCa-2, 48 h): 4.00 to 4.30 | pIC50 (Panc-1 cells; Homo sapiens): < 4.00 | pIC50 (MGC-803 cells; Homo sapiens): 4.00 to 4.30 | pIC50 (HpeG-2 cells): > 4.30
SMILES: COc1ccc2c(c1)C(=O)N(C1CC[C@@H]3[C@H]4CCCN5CCC[C@@H](CN3C1=O)[C@@H]45)C2=O (some centres unmarked) [GJD 16]

pIC50 (Lovo cells; Homo sapiens): 4.00 to 4.30 | pIC50 (A549 cells; Homo sapiens): 4.00 to 4.30 | pIC50 (k562 cells; Homo sapiens): 4.00 to 4.30 | pIC50 (Mia-paca2 cells; Homo sapiens, MIA PaCa-2, 48 h): < 4.00 | pIC50 (Panc-1 cells; Homo sapiens): < 4.00 | pIC50 (MGC-803 cells; Homo sapiens): < 4.00 | pIC50 (HpeG-2 cells): 4.00 to 4.30
SMILES: Nc1ccc(S(=O)(=O)NC2=CC[C@@H]3[C@H]4CCCN5CCC[C@@H](CN3C2=O)[C@@H]45)cc1 [GJD 47]

SMILES: Cc1cccc2c1CN(C1CC[C@@H]3[C@H]4CCCN5CCC[C@H](CN3C1=O)[C@@H]45)C2=O (some centres unmarked) [GJD 44]
inhibition at 20 µM (TNF-α): > 50%

pIC50 (Lovo cells; Homo sapiens): 4.00 to 4.30 | pIC50 (A549 cells; Homo sapiens): 4.00 to 4.30 | pIC50 (k562 cells; Homo sapiens): 4.00 to 4.30 | pIC50 (Mia-paca2 cells; Homo sapiens, MIA PaCa-2, 48 h): < 4.00 | pIC50 (Panc-1 cells; Homo sapiens): < 4.00 | pIC50 (MGC-803 cells; Homo sapiens): < 4.00 | pIC50 (HpeG-2 cells): 4.00 to 4.30
SMILES: O=C1[C@@H](N2C(=O)c3ccccc3C2=O)CC[C@@H]2[C@H]3CCCN4CCC[C@@H](CN12)[C@@H]34 [GJD 25]

SMILES: COc1ccc(C(=O)NC2CC[C@@H]3[C@H]4CCCN5CCC[C@@H](CN3C2=O)[C@@H]45)cc1OC1CCCC1 (some centres unmarked) [GJD 53]
inhibition at 20 µM (TNF-α): > 50%

SMILES: O=C1CCC[C@@H]2[C@H]3CCC[N+]4([O-])CCC[C@@H](CN12)[C@@H]34 (some centres unmarked) [Oxymatrine, oxymatrine, reference compound]
inhibition at 20 µM (TNF-α): < 50%

pIC50 (Lovo cells): > 4.30 | pIC50 (A549 cells): > 4.30 | pIC50 (k562 cells): > 4.30 | pIC50 (Mia-paca2 cells; 48 h): 4.00 to 4.30 | pIC50 (Panc-1 cells): > 4.30 | pIC50 (MGC-803 cells): 4.00 to 4.30 | pIC50 (HpeG-2 cells): > 4.30
SMILES: O=C1c2cccc([N+](=O)[O-])c2C(=O)N1C1CC[C@@H]2[C@H]3CCC[N+]4([O-])CCC[C@@H](CN2C1=O)[C@@H]34 (some centres unmarked) [GJD 66]
TNF-α inhibition rate (%) (TNF-α): <50%

SMILES: O=C(NC1CC[C@@H]2[C@H]3CCCN4CCC[C@@H](CN2C1=O)[C@@H]34)c1ccccc1O (some centres unmarked) [GJD 50]
inhibition at 20 µM (TNF-α): > 50%

SMILES: CC(=O)Nc1cccc2c1CN(C1CC[C@@H]3[C@H]4CCCN5CCC[C@@H](CN3C1=O)[C@@H]45)C2=O (some centres unmarked) [GJD 33]
inhibition at 20 µM (TNF-α): > 50%

SMILES: O=C1c2cccc(F)c2C(=O)N1C1CC[C@@H]2[C@H]3CCCN4CCC[C@@H](CN2C1=O)[C@@H]34 (some centres unmarked) [GJD 03]
inhibition at 20 µM (TNF-α): > 50%

SMILES: O=C1c2cccc([N+](=O)[O-])c2C(=O)N1C1CC[C@@H]2[C@H]3CCCN4CCC[C@@H](CN2C1=O)[C@@H]34 (some centres unmarked) [GJD 05]
inhibition at 20 µM (TNF-α): > 50%

SMILES: O=C1c2ccccc2CN1C1CC[C@@H]2[C@H]3CCCN4CCC[C@@H](CN2C1=O)[C@@H]34 (some centres unmarked) [GJD 30]
inhibition at 20 µM (TNF-α): < 50%

SMILES: CCOc1cc(C(=O)NC2CC[C@@H]3[C@H]4CCCN5CCC[C@@H](CN3C2=O)[C@@H]45)ccc1OC (some centres unmarked) [GJD 54]
inhibition at 20 µM (TNF-α): > 50%

SMILES: Cc1cccc2c1C(=O)N(C1CC[C@@H]3[C@H]4CCCN5CCC[C@@H](CN3C1=O)[C@@H]45)C2=O (some centres unmarked) [GJD 08]
inhibition at 20 µM (TNF-α): > 50%

SMILES: O=C1CCC[C@@H]2[C@H]3CCCN4CCC[C@H](CN12)[C@@H]34 [Sophoridine, sophoridine, reference compound]
inhibition at 20 µM (TNF-α): < 50%

SMILES: COc1cccc2c1C(=O)N(C1CC[C@@H]3[C@H]4CCCN5CCC[C@@H](CN3C1=O)[C@@H]45)C2=O (some centres unmarked) [GJD 09]
inhibition at 20 µM (TNF-α): > 50%
